Results reported in the NIST ThermoML archive (doi:10.1016/j.fluid.2015.03.015).
± gives the expanded uncertainty stated by the source.

Test: refractive index (other wavelength) (dimensionless)
Details: 85 kPa, Liquid, Wavelength=632.8 nm, Minimum Deviation

A refractive index (297.43 K) of 1.4217 ± 0.0003, a refractive index (298.87 K) of 1.4211 ± 0.0003 and a refractive index (300.46 K) of 1.4205 ± 0.0003 were found for `CCCCCCCO` [heptan-1-ol] in this work. The refractive index (301.93 K) was 1.4199 ± 0.0003, the refractive index (303.44 K) was 1.4193 ± 0.0003 and the refractive index (305.08 K) was 1.4187 ± 0.0003. The refractive index (306.72 K) was 1.418 ± 0.0003 and the refractive index (308.35 K) was 1.4174 ± 0.0003.
A refractive index (289.22 K) of 1.407 ± 0.0003, a refractive index (292.33 K) of 1.4058 ± 0.0003 and a refractive index (295.95 K) of 1.4042 ± 0.0003 were found for `CCCC(C)O` (stereo not given) [pentan-2-ol] in this work. It also gave a refractive index (299.54 K) of 1.4027 ± 0.0003, a refractive index (302.62 K) of 1.4013 ± 0.0003 and a refractive index (306.2 K) of 1.3997 ± 0.0003.
A refractive index (288.81 K) of 1.4343 ± 0.0003, a refractive index (290.85 K) of 1.4338 ± 0.0003 and a refractive index (292.91 K) of 1.4332 ± 0.0003 were found for `CCCCCCCC[n+]1ccn(C)c1.F[B-](F)(F)F` [1-methyl-3-octylimidazolium tetrafluoroborate] in this work. The refractive index (294.95 K) was 1.4327 ± 0.0003, the refractive index (297 K) was 1.4321 ± 0.0003 and the refractive index (297.74 K) was 1.4319 ± 0.0003. For the same compound, the refractive index (299.06 K) was 1.4316 ± 0.0003, the refractive index (299.31 K) was 1.4315 ± 0.0003 and the refractive index (300.78 K) was 1.4312 ± 0.0003. The refractive index (301.11 K) was 1.431 ± 0.0003, the refractive index (302.3 K) was 1.4307 ± 0.0003 and the refractive index (303.2 K) was 1.4304 ± 0.0003. It also gave a refractive index (303.84 K) of 1.4303 ± 0.0003, a refractive index (305.32 K) of 1.4299 ± 0.0003 and a refractive index (306.84 K) of 1.4295 ± 0.0003. For the same compound, the refractive index (308.35 K) was 1.429 ± 0.0003.
